{
  "source": "patent US11414379B2",
  "about": "“SPAK kinase inhibitors as neuroprotective agents” (United States Government as represented by the Department …, priority 2018, dated 2022)",
  "key": {"[1]": {"test_system": "normotensive and hypertensive rodent models", "conditions": "oral administration of 1-10 mg/kg; cited from earlier work"}, "[2]": {"test_system": "mouse model of ischemic stroke", "assay": "Infarct volume and hemispheric swelling after transient MCAO", "format": "in vivo", "conditions": "2.5 mg/kg; 24 hr reperfusion", "description": "Under an operating microscope, the left common carotid artery was exposed through a midline incision. […] The ECA was dissected further distally and permanently ligated. The internal carotid artery (ICA) was isolated and carefully separated from the adjacent vagus nerve. A 12 mm length of silicon-coated nylon filament (size 6-0, native diameter 0.11 mm; diameter with coating 0.21+/−0.02 mm; coating length 5-6 mm; Doccol Corporation, Sharon, Mass.) was introduced into the ECA lumen through a puncture. The silk suture around the ECA stump was tightened around the intraluminal nylon suture to prevent bleeding. The nylon suture was then gently advanced from the ECA to the ICA lumen until mild resistance was felt (˜9 mm). For reperfusion, the suture was withdrawn 50 min after MCAO to restore blood flow. Body temperature was maintained for the duration of the experiment between 36.5° C.-37° C. with a small animal heating pad (Kent Scientific).\nAt 24 hours reperfusion, mice were anesthetized with 5% isoflurane and then decapitated. Coronal brain tissue slices (2 mm) were stained for 20 minutes at 37° C. with 1% 2,3,5-triphenyltetrazolium chloride monohydrate (TTC; Sigma, St Louis, Mo.) in PBS solution. […] The extent of hemispheric swelling was calculated using the following equation: swelling (% contralateral side)=[(volume of ipsilateral hemisphere−volume of contralateral hemisphere)/volume of contralateral hemisphere]×100 (Bhuiyan et al. (2017) Journal of cerebral blood flow and metabolism: official journal of the International Society of Cerebral Blood Flow and Metabolism 37: 2780-2794).\nReferring to FIG. 11A, an experimental design of ischemic stroke study is shown. Vehicle or ZT-1a is administered at 3 hrs and 8 hrs post-MCAO.\nReferring to FIG. 11B, representative images and quantification of infarct volume and hemispheric swelling in TTC-stained coronal sections of mouse brains 24 hrs post-MCAO are shown. Vehicle (DMSO, 2 ml/kg) or ZT-1a (2.5 or 5.0 mg/kg) were administered with an initial half dose at 3 hrs and the second half dose at 8 hr reperfusion via intra-peritoneal injection (i.p.). Data are mean±SD, n=6-12 per group (male). * p<0.05."}, "all four WNK kinases": {"test_system": "all four WNK kinases", "conditions": "cited from earlier work"}, "mice": {"test_system": "mice", "assay": "Adverse effects of WNK463 administered to mice", "format": "in vivo, mouse", "conditions": "2.5 mg/kg dose"}},
  "note": "“Also recorded” adds a separate entry of the source.",
  "data": [
    {"molecule": "CC(C)(C)NC(=O)c1cncn1C1CCN(c2ccc(-c3nnc(C(F)(F)F)o3)cn2)CC1", "note": "[WNK463]", "values": [
      {"measurement": "effect on blood pressure", "setting": "[1]", "value": "reduced blood pressure"},
      {"measurement": "effect on infarct volume and hemispheric swelling", "setting": "[2]", "value": "reduced neither infarct volume nor hemispheric swelling; also recorded: no neuroprotective effects"},
      {"measurement": "inhibition of WNK kinases in vitro", "setting": "all four WNK kinases", "value": "nanomolar range"},
      {"measurement": "adverse effects", "setting": "mice", "value": "ataxia and breathing difficulties"}
    ]}
  ]
}
